The source of these data is PMC9792776 (Frontiers in Pharmacology, 2022).

The Papp is a coefficient for how fast a substance crosses the barrier. A lower Papp goes with slow passage.

Data set [1] in a line: In vitro Caco-2 cell permeability. The data set is classed as in vitro ADME. The note with it: human. An excerpt:
The first-order absorption model has different absorption rate constants (ka) and fraction available from dosage form (fa) to simulate absorption processes in fasting and fed states. […] Caco-2 (human colorectal adenocarcinoma) cells are used to model the intestinal epithelial barrier. The Simcyp (Version 19.0, Certara Inc., Sheffield, UK) minimal PBPK, which treats all organs other than the intestine and liver as a single compartment ([Rowland Yeo et al., 2010]), was selected, along with a single adjusting compartment (SAC) distribution model. The SAC is a nonphysiologic compartment that permits adjustment to the drug concentration profile in the systemic compartment ([Ke et al., 2016]).
(In general: Caco-2 cells form a polarised layer with tight junctions and transporters.)

Data set [2] concerns the target CYP3A4 (Homo sapiens, UniProt P08684). In words: Intrinsic clearance in human recombinant CYP3A4.
In data set [3] the target is CYP2C9 (Homo sapiens, UniProt P11712). Conditions: recombinant enzyme.
Chain of CYP2C9 (P11712 whole entry): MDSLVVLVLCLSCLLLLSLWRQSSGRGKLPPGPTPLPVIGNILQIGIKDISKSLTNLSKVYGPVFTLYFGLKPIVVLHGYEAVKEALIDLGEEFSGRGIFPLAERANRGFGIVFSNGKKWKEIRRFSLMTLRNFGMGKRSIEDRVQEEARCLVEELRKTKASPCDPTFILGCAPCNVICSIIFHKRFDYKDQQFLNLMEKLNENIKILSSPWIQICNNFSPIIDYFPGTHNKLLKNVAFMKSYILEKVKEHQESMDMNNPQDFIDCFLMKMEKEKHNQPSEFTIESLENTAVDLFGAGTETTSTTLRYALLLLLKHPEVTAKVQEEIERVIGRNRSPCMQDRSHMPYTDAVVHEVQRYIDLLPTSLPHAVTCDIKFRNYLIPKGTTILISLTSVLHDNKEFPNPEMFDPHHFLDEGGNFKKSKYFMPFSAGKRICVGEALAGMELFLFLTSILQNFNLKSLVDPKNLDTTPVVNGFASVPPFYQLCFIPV

Chain of CYP3A4 (P08684 whole entry): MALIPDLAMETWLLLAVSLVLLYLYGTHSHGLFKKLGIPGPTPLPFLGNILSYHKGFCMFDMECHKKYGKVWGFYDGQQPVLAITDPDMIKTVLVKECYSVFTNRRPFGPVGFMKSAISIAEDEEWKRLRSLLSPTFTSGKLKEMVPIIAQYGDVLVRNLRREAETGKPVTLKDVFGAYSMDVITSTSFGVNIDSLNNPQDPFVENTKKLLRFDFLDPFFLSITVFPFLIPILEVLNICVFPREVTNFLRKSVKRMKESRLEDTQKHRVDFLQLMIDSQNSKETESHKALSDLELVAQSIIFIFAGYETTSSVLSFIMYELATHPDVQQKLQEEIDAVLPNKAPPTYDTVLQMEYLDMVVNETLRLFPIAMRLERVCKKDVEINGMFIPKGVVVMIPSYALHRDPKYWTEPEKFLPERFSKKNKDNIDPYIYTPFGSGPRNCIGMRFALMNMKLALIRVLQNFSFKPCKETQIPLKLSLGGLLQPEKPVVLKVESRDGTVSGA

In data set [1], `CC(C)NCC(O)COc1cccc2ccccc12` (stereo not drawn) [Propranolol, propranolol, reference compound] showed a Papp of 5.68 ×10⁻⁶ cm/s.
As to `Cc1ncc2n1-c1ccc(Cl)cc1C(c1ccccc1F)=NC2` [Midazolam, reference compound], the “CLint CYP3A4” value in data set [2] is reported as 3.083 µL/min/pmol CYP.
Take `O=C(O)Cc1ccccc1Nc1c(Cl)cccc1Cl` [Diclofenac]: in data set [3], the “CLint CYP2C9” value was found to be 2.965 µL/min/pmol CYP.
